How the values were obtained:
[1] = tested on: pooled human liver microsomes; experiment: Human liver microsome metabolic stability assay; format: in vitro ADME; details: for % Remaining 30 min / % Remaining 60 min / % Remaining 120 min: pooled human liver microsomes 1.0 mg/mL, 1 μM test compound, 37° C.
Description: The objectives of the present study were to determine the metabolic stability of the test compounds in pooled liver microsomal incubations and to perform full scan LC-MS analysis for the detection of major metabolites. Samples of the test compounds, exposed to pooled human liver microsomes, were analyzed using HPLC-MS (or MS/MS) detection. For determining metabolic stability, multiple reaction monitoring (MRM) was used to measure the disappearance of the test compounds. For metabolite detection, Q1 full scans were used as survey scans to detect the major metabolites.
Human liver microsomes were obtained from Absorption Systems L.P. (Exton, Pa.). The incubation mixture was prepared as follows:
The reaction mixture, minus cofactors, was prepared. An aliquot of the reaction mixture (without cofactors) was incubated in a shaking water bath at 37° C. for 3 minutes. Another aliquot of the reaction mixture was prepared as the negative control. The test compound was added into both the reaction mixture and the negative control at a final concentration of 1 μM. An aliquot of the reaction mixture was prepared as a blank control, by the addition of plain organic solvent (not the test compound). The reaction was initiated by the addition of cofactors (not into the negative controls), and then incubated in a shaking water bath at 37° C. Aliquots (200 μL) were withdrawn in triplicate at 0, 15, 30, 60, and 120 minutes and combined with 800 μL of ice-cold 50/50 acetonitrile/deionized water to terminate the reaction. The positive controls, testosterone and propranolol, were run simultaneously with the test compounds in separate reactions. All samples were analyzed using LC-MS (or MS/MS). An LC-MRM-MS/MS method was used for metabolic stability. Also, Q1 full scan LC-MS methods were performed on the blank matrix and the test compound incubation samples. The Q1 scans served as survey scans to identify any sample unique peaks that might represent the possible metabolites. The masses of these potential metabolites can be determined from the Q1 scans.
The test compounds were evaluated in the human liver microsome assay described above along with paroxetine as a control. The columns of Table 2 labelled “% remaining” refer to the percentage of each test compound remaining after 30, 60 and 120 minute intervals in the human microsomal assay.

CYP2D6 [2] = biological target: T1, CYP2D6 (Homo sapiens, UniProt P10635); details: mechanism-based; cited from earlier work
[3] = 30 mg oral solution, radiolabeled, healthy volunteers, cited from earlier work
[4] = cited from earlier work
CYP2D6 [5] = biological target: T1, CYP2D6; details: clinical; cited from earlier work
mice = experiment: Forced tail suspension test, immobility time; format: in vivo; details: 15 mg/kg oral (as free base), versus vehicle control
Description: The product of Example 11 is tested at MDS Pharma by oral administration to mice (n=8) to determine its effect on total immobility time during forced tail suspension, using essentially the procedure of “Drug Discovery and Evaluation”, Vogel H G and Vogel W H (eds.), p. 304, 1997, Springer-Verlag, New York.

T1 sequence (P10635 whole entry): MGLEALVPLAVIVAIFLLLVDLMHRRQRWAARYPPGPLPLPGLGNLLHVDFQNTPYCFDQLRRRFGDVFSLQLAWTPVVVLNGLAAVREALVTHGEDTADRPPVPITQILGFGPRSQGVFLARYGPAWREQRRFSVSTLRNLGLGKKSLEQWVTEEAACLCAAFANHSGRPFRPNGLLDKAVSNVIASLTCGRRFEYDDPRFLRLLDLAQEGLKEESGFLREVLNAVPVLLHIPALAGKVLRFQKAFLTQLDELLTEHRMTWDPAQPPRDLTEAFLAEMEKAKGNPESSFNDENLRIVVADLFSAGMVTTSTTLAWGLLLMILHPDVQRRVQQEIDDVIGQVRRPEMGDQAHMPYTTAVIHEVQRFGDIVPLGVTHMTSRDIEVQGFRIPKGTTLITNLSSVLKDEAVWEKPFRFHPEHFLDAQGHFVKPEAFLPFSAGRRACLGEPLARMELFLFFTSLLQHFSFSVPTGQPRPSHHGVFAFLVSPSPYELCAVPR

SMILES: Cl.[2H]C1([2H])Oc2ccc(OC[C@@H]3CNCC[C@H]3c3ccc(F)cc3)cc2O1 [A, (3S,4R)-3-((2,2-dideuterobenzo[d][1,3]dioxol-5-yloxy)methyl)-4-(4-fluorophenyl)piperidine hydrochloride]
- % Remaining 30 min [1]: 29%
- % Remaining 60 min [1]: 26%
- % Remaining 120 min [1]: 16%

SMILES: Cl.[2H]C1([2H])Oc2ccc(OC([2H])([2H])[C@@H]3CNCC[C@H]3c3ccc(F)cc3)cc2O1 [B, (3S,4R)-3-((2,2-dideuterobenzo[d][1,3]dioxol-5-yloxy)dideuteromethyl)-4-(4-fluorophenyl)piperidine hydrochloride]
- % Remaining 30 min [1]: 22%
- % Remaining 60 min [1]: 10%
- % Remaining 120 min [1]: 6%

SMILES: Fc1ccc([C@@H]2CCNC[C@H]2COc2ccc3c(c2)OCO3)cc1 [Compound 1, (3S,4R)-3-((benzo[d][1,3]dioxol-5-yloxy)methyl)-4-(4-fluorophenyl)piperidine]
- stability in the microsome assay (in words) ([1]; human liver microsomes, summary of Table 2): relative stability
- % Remaining 30 min [1]: 51%
- % Remaining 60 min [1]: 51%
- % Remaining 120 min [1]: 44%
- inactivation of CYP2D6 (in words) (CYP2D6 [2]): highly potent, mechanism based inactivator
- excreted in the feces as parent compound ([3]; 10-day period): less than 1%
- excreted in the feces, total ([3]; 10-day period): About 36%
- excreted in the urine as metabolites ([3]; 10-day period): 62%
- excreted in the urine as parent compound ([3]; 10-day period): 2%
- excreted in the urine, total ([3]; 10-day post-dosing period): approximately 64%
- half-life, poor metabolizers versus extensive metabolizers ([4]; European cohort, low versus higher CYP2D6 activity): approximately 3 fold
- coefficients of variability across Cmax, Cmin and AUC ([4]; steady state, test population): 30-70%
- reduction in CYP2D6 activity (in words) (CYP2D6 [5]): dose-dependent, highly significant reduction

SMILES: CC(C)(C)OC(=O)N1CC[C@@H](c2ccc(F)cc2)[C@H](CO)C1 [Example 11, (3S,4R)-tert-butyl 4-(4-fluorophenyl)-3-(hydroxymethyl)piperidine-1-carboxylate]
- total immobility time during forced tail suspension (mice): statistical reduction

Reference: US20150196544A1, “NOVEL BENZO[d][1,3]-DIOXOL DERIVATIVES” (priority 2005, published 2015)
